From US20240400547A1, “2,6-PIPERIDINEDIONE COMPOUND AND APPLICATION THEREOF” (MEDSHINE DISCOVERY INC., priority 2021, published 2024) come the findings set out here.

Counter-ions that a name gives are not always drawn.

The subject of test [1] is SU-DHL-2. The test is described as follows: Antiproliferative effect in lymphoma cell line SU-DHL-2 (CellTiter-Glo). The note with it: SU-DHL-2, 4 days. The class given is cell-based, human. How it is done:
Experimental purpose: The experiment aims to evaluate the inhibitory effects of the test compounds on cell proliferation in the lymphoma cell line SU-DHL-2.
The tumor cell lines were cultured in a 37° C., 5% CO2 incubator under the above culture conditions. Regular passage, and cells in logarithmic growth phase were taken for plating.
• (1) Cells were stained with trypan blue and viable cells were counted. • (2) The cell concentration was adjusted to an appropriate concentration.
• (3) 50 μL of cell suspension per well was added to the culture plate as shown in the figure above. • (4) The culture plate was cultured overnight in a 37° C., 5% CO2 incubator with 100% relative humidity.
Compounds were added using the Echo655 instrument. The volume of compound added was 50 nL, with a final DMSO concentration of 0.1%. The culture plate was centrifuged at 1000 rpm for 1 minute, then incubated for 4 days in an incubator at 37° C., 5% CO2, and with 100% relative humidity.
The following steps were performed according to the instructions of Promega CellTiter-Glo luminescent cell viability assay kit (Promega-G7573). • (1) CellTiter-Glo buffer was melted and brought to room temperature. • (2) CellTiter-Glo substrate was brought to room temperature. • (3) CellTiter-Glo working solution was prepared by adding CellTiter-Glo buffer to a vial of CellTiter-Glo substrate to dissolve the substrate; • (4) The mixture was slowly vortexed and shaken to be fully dissolved. • (5) The cell culture plate was taken out and left for 30 minutes to equilibrate to room temperature. • (6) 25 μL of CellTiter-Glo working solution was added per well (equal to half the volume of cell culture medium per well). The cell plate was wrapped in aluminum foil to be protected from light. • (7) The culture plate was shaken on an orbital shaker for 2 minutes to induce cell lysis. • (8) The culture plate was left at room temperature for 10 minutes to stabilize the luminescent signal. • (9) The luminescent signal was detected on a 2104 EnVision plate reader.
The inhibition rate (IR) of the test compound was calculated using the following formula: IR (%)=(1−(RLU compound/RLU blank control)/(RLU vehicle control−RLU blank control)×100%. The inhibition rates of compounds at different concentrations were calculated in Excel, and then GraphPad Prism software was used to plot inhibition curves and calculate relevant parameters, including minimum inhibition rate, maximum inhibition rate, and IC50.

The target in test [2] is T1, IRAK4 (Homo sapiens, UniProt Q9NWZ3).
T1 construct: expressed in transfected cells; host or cells: K562 IRAK4-HiBiT cells
T1 sequence (Q9NWZ3 1-460): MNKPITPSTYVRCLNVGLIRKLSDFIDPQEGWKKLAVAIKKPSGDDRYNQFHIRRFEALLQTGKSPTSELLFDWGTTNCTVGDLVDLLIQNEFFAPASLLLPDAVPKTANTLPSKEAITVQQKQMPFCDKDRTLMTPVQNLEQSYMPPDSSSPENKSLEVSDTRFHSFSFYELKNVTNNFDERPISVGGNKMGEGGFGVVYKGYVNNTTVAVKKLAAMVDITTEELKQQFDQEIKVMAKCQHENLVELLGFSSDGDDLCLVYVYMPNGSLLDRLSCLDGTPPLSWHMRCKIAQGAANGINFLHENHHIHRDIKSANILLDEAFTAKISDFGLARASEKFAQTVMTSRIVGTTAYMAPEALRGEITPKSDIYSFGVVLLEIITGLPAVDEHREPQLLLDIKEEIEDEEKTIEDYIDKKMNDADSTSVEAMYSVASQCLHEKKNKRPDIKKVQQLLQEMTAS
Briefly: Target protein degradation in K562 IRAK4-HiBiT cells (Nano-Glo HiBiT). The class given is cell-based. The settings on record: 16 to 18 hours; for Dmax: read-out: Maximum degradation rate. How it is done:
Experimental objective: The experiment aims to evaluate the degradation effect of the test compounds on the target protein IRAK4 in K562 IRAK4-HiBiT cells.
• Cells: K562 IRAK4-HiBiT cells • Culture medium: RPMI 1640+10% fetal bovine serum+2 mM glutamine+1 mM sodium pyruvate+penicillin/streptomycin. • Positive control: 1000 nM; negative control: 0.1% DMSO.
• (1). The powder of the compound to be tested was dissolved in DMSO to a storage concentration of 10 mM. A total of 9 μL of the 10 mM of the compound to be tested was manually pipetted into the 1st and 13th columns of the LDV plate using a pipettor; • (2). A volume of 6 μL of DMSO was added to columns 2-12 and 14-24 using a Multidrop Combi; • (3). A 3-fold dilution of the test compounds (3 μL+6 μL) was performed using Bravo, for columns 1-11 and 13-23; • (4). According to the plate layout, 25 nL of compound solution (columns 1-24 of the LDV plate) was transferred to the experimental plate using Echo; • (5) 25 nL of the 1 mM positive control solution was transferred to the assay plate as a 100% degradation control (i.e. LC, HPE), and 25 nL of DMSO was transferred to the assay plate as a 0% control (i.e. HC, ZPE).
• (1) The culture medium was discarded, and the cells were washed once with DPBS, digested with trypsin, counted, and prepared into a cell suspension of […]. • (2) Using the MultiDrop Combi at a medium speed, 25 μL/well of the cell suspension was added to the experimental plate containing the test compounds; • (3) The experimental plate containing cells was returned to the incubator and cultured for 16 to 18 hours at 37° C. and 5% CO2.
• (1). Using the MultiDrop Combi at a high speed, 25 μL/well of the assay reagent (NanoGlo lytic solution+substrate+LgBit protein) was added to the assay plate, followed by shaking for 10 minutes; • (2) The plate was centrifuged at 2000 rpm for 1 minute to remove any bubbles; • (3) Readings were obtained by using an Envision, US Luminescence reader.
To calculate the degradation rate (DR) of the test compounds, the following formula is used: IR (%)=(RLU vehicle control−RLU compound)/(RLU vehicle control−RLU positive control)×100%. The solvent control refers to the blank control. The degradation rates of compounds at different concentrations were calculated in Excel, and then XLFit software was used to plot inhibition curves and calculate relevant parameters, including minimum degradation rate, maximum degradation rate, and DC50.
A general note: With HiBiT, luminescence reflects the tagged protein that the partner subunit can reach.

Test [3] addresses T2, IKZF1 (Homo sapiens, UniProt Q13422+Q96SW2).
T2 construct: host or cells: MM.1S cells
The test is described as follows: In Cell Western of IKZF1 protein expression level in MM.1S cells. It is filed as cell-based. The note with it: IKZF1, MM.1S cells, 24 hours; for Dmax: MM1.S, read-out: Maximum degradation rate Dmax. How it is done: Experimental objective: The experiment aims to assess the degradation effect of the test compounds on IKZF1 and 1KZF3 proteins in MM.1S cells by evaluating the impact of the test compounds on the expression levels of IKZF1 and IZKZF3 proteins in MM.1S cells.
• Cell lines: MMN.1 S cell (sourced from ATCC; Cat. No CRL-2974) • Negative control: 0.100 DMSO.
• 1) Log phase MM.1 S cells were plated in a 96-well plate at 1.2×10^5 cells per well and cultured overnight; • 2) The next day, compounds were added with a starting concentration of 300 nM, diluted threefold across three replicate wells for 10 concentration gradients (including DMSO), and the cells were incubated for 24 hours in an incubator; • 3) The cells were centrifuged, and the supernatant was carefully removed. 150 μL of 4% paraformaldehyde fixative was added along the wall of the wells, avoiding contact with the bottom cells, and the cells were incubated at room temperature for 20 minutes; • 4) Lysis buffer was prepared by mixing 0.5 mL of 10% Triton X-100 with 49.5 mL of PBS until homogenous; • 5) 200 μL of lysis buffer was added along the well walls, again avoiding the bottom cells, and incubated on a shaker at room temperature for 5 minutes; • 6) The wells were washed four times; • 7) 150 μL of Licor […] Blocking Buffer was added along the well walls, avoiding the bottom cells, and the cells were incubated on a shaker at room temperature for 1.5 hours; • 8) Ikaros (D6N9Y) Rabbit mAb, Aiolos (D1C1E) Rabbit mAb and GAPDH mouse mAb (proteintech, 60004-1-Ig) were diluted at a 1:100 ratio using antibody dilution buffer; • 9) 50 μL of mixed antibody was added to each well with three replicate wells, and the cells were incubated overnight on a shaker at 4° C.; • 10) PBST (PBS with 0.1% Tween 20) was prepared; • 11) The primary antibodies were removed, and 200 μL of PBST was added along the well walls, avoiding the bottom cells, and the cells were incubated on a shaker at room temperature for 5 minutes; • 12) The wells were washed four times; • 13) Secondary antibody dilution buffer was prepared by adding Tween 20 to Licor […] Blocking Buffer to a final concentration of 0.2%; • 14) Fluorescent secondary antibodies were diluted in the dark at a 1:800 ratio. To 400 μL of secondary antibody dilution solution, 0.5 μL of each IRDye 800CW and IRDye 680CW (corresponding to the primary antibodies) was added. • 15) 50 μL of the diluted fluorescent secondary antibodies was added to each well and the cells were incubated on a shaker at room temperature in the dark for 60 minutes; • 16) The secondary antibodies were removed, and 200 μL of PBST was added along the well walls, avoiding the bottom cells, and the cells were incubated on a shaker at room temperature in the dark for 5 minutes; • 17) The wells were washed four times; immediately after washing, the Odyssey Gel Imaging System was used for detection at dual wavelengths of 700 nm and 800 nm.
Using GraphPad Prism 6 software, inhibition rate data was entered to fit the curve and calculate the DC50 value.

T2 sequence (Q13422 whole entry): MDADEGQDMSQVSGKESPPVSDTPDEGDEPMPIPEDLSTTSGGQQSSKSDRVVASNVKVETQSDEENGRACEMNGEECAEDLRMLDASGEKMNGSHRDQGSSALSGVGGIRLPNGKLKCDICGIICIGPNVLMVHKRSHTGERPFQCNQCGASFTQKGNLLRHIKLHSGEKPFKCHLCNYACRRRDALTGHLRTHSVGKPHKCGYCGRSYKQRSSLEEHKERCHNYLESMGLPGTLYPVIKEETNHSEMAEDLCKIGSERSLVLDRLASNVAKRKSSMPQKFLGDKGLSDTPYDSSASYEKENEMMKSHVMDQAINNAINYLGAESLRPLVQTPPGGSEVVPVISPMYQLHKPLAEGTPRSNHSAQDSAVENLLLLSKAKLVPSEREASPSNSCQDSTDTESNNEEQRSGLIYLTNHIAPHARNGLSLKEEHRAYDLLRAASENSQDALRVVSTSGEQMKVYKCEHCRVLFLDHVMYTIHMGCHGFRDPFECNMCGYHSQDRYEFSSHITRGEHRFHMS
T2 sequence (Q96SW2 whole entry): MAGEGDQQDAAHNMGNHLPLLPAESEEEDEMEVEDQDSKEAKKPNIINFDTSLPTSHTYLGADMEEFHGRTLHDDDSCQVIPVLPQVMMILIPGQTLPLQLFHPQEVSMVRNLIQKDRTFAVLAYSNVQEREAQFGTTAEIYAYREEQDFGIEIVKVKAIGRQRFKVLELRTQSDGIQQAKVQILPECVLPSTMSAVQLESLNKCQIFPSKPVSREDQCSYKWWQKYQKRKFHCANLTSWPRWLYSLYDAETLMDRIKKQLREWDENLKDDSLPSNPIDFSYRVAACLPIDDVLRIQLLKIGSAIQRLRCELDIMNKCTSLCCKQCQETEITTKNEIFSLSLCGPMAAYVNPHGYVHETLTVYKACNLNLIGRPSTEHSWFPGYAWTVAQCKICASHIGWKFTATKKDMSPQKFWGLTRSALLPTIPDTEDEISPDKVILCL
T2 sequence (Q16531 whole entry partner): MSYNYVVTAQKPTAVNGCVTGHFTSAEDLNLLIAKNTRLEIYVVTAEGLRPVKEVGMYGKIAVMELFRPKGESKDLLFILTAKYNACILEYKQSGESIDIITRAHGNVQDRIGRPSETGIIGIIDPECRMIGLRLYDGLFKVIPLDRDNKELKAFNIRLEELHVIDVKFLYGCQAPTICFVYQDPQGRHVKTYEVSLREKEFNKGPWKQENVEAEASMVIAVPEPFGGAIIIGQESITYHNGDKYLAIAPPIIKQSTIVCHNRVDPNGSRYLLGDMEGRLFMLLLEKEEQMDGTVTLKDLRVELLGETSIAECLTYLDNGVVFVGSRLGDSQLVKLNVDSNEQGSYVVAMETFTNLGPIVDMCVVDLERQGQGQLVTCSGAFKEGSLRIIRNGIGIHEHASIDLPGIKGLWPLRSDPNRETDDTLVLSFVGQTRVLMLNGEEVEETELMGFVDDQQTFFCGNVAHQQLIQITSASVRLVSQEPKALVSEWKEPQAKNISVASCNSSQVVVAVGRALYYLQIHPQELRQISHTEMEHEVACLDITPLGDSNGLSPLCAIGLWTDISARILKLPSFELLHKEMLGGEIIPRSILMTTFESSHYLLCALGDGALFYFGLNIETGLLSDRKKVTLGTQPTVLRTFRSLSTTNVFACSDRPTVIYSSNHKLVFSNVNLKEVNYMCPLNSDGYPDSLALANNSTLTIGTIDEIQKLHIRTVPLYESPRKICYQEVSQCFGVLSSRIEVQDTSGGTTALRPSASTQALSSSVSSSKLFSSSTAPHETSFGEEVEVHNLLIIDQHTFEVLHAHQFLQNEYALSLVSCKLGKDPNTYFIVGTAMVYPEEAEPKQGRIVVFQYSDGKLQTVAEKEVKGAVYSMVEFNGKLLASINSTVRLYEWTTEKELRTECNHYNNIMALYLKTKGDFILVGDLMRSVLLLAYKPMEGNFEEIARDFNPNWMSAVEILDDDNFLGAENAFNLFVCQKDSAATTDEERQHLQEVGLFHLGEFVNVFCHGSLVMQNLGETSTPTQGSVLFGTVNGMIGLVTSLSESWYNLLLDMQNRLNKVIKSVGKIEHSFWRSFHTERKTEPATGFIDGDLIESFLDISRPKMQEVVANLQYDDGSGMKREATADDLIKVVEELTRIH

One may read the IC50 as the concentration that inhibits the measured activity by half. Low values mean inhibition by little substance, high ones a need for much substance. In turn, `CN(CCCOCCCc1ccc2occ(C3CCC(=O)NC3=O)c2c1)C[C@H]1CC[C@H](n2cc(NC(=O)c3coc(-c4ccnc(NCC5CC5)c4)n3)c(C(F)F)n2)CC1` (stereo partly shown) [Hydrochloride of WX004] showed an IC50 in test [1] (Homo sapiens, 96 h) of 64.5 nM. Moreover, in test [1], the Maximum inhibition rate is recorded as 99.05%.
On to `O=C1CCC(c2noc3ccc4cc(NC(=O)CN5CCN(CC6CCC(n7cc(NC(=O)c8coc(-c9ccnc(NCC%10CC%10)c9)n8)c(C(F)F)n7)CC6)CC5)ccc4c23)C(=O)N1` (stereo not shown) [Hydrochloride of WX015], for which, in test [2], the DC50 amounted to 47.1 nM and the Dmax is 100%. In test [3], the DC50 was 7.7 nM and the Dmax was determined as 81.8%.
With `CN(CCCOCCCc1ccc2c(ccc3onc(C4CCC(=O)NC4=O)c32)c1)C[C@H]1CC[C@H](n2cc(NC(=O)c3coc(-c4ccnc(NCC5CC5)c4)n3)c(C(F)F)n2)CC1` (stereo partly shown) [Hydrochloride of WX016], in test [2], the DC50 was 70.7 nM and the Dmax is 93.1%. For the same compound, in test [3], the DC50 came out at 6.02 nM and the Dmax amounted to 81.6%.
